Laboratory results as given in publication PMC9090415, “Discovery of small molecule inhibitors of Plasmodium falciparum apicoplast DNA polymerase” (Journal of Enzyme Inhibition and Medicinal Chemistry, 2022).

Biological target: P. falciparum apicoplast DNA polymerase (Pf-apPOL) (Plasmodium falciparum, UniProt Q8ILY1)
Assay: Fluorescence-based high-throughput DNA polymerase assay (molecular beacon), primary screen and dose-response
Format: biochemical
Conditions: for DNA Pol: unit not given, 90 min, 10 µM
Method: The HT assay employs a molecular beacon, a stem-loop DNA template with a Cy3 dye and the Black Hole Quencher on the 3′ and 5′ ends of the DNA, respectively. Pf-apPOL concentration is based on a calculated absorptivity of ε280 = 56750 M^−1 cm^−1. Reactions were carried out at 25 °C, using Corning 3575 […] (well-volume, 20 µL). Assays testing for compound inhibition composed of reaction buffer (pH 7.9 in 50 mM potassium acetate, 20 mM Tris-acetate and 10 mM magnesium acetate), Pf-apPOL (20 nM), DNA substrate (20 nM), dNTPs (6 µM), and compound (10 µM in DMSO). The DNA and nucleotide substrates (dNTPs) were at concentrations of 20 nM and 6 µM, respectively, in the assay. Pf-apPOL was incubated in the reaction buffer with dNTPs and the compound of interest (10 µM, in the assay) at 25 °C for 10 min. The DNA substrate was then added and the reaction was allowed to proceed for 90 min at 25 °C.
Each assay plate contained 16 negative controls (no Pf-apPOL, DMSO present) and 16 positive controls (Pf-apPOL present, no DMSO). The fluorescence of each well was determined using a BioTek Synergy Neo fluorescence plate reader using excitation and emission wavelengths of 555 and 570 nm, respectively.
In the above, Min is the average of fluorescence emission of the negative controls (substrate only), Max the average fluorescence emission from the positive controls (enzyme + substrate), and Test the emission from the assays in the presence of compounds (enzyme + compound + substrates). […] […] The IC50 of each compound was determined using Equation (2): (2) IC50= Vmax/(1+ (I/IC50)^n)
In the above, n measures cooperativity, with n > 1 indicating synergistic binding of more than a single molecule of the compound.
To identify apPOL inhibitors we utilised our previously developed high-throughput DNA polymerase assay. The HT assay is based on a molecular beacon DNA template that forms a stem-loop with a Cy3 dye and the Black Hole Quencher on the 3′ and 5′ ends of the DNA, respectively. DNA polymerase activity extends an annealed primer through the stem region, displacing the fluorophore from the quencher, thereby increasing its fluorescence (Figure 1(A)). The assay accurately recapitulates the kinetic behaviour of apPOL, as measured through more conventional low-throughput gel-based assays. The Z′ factor for the assay described here was 0.9 across all plates (data not shown).
Figure 1. High-throughput screening. (A) The fluorescent-based DNA polymerase assay used to screen the compound libraries. The DNA template strand is a hairpin loop with a primer annealed to the loop. The 3’ end of the primer is 11 bases away from the 6 bp duplex. Strand displacement activity of the DNA polymerase separates the Cy3 dye from the Black hole quencher leading to an increase in fluorescent signal. (B) The high-throughput assay workflow. The DNA polymerase is incubated with […] compound for 10 min prior to addition of the hairpin substrate. The reaction is quenched at 3 different time points and the fluorescent signal is measured and % inhibition is determined using the provided equation.

P. falciparum apicoplast DNA polymerase (Pf-apPOL), sequence (Q8ILY1 entry or part of it): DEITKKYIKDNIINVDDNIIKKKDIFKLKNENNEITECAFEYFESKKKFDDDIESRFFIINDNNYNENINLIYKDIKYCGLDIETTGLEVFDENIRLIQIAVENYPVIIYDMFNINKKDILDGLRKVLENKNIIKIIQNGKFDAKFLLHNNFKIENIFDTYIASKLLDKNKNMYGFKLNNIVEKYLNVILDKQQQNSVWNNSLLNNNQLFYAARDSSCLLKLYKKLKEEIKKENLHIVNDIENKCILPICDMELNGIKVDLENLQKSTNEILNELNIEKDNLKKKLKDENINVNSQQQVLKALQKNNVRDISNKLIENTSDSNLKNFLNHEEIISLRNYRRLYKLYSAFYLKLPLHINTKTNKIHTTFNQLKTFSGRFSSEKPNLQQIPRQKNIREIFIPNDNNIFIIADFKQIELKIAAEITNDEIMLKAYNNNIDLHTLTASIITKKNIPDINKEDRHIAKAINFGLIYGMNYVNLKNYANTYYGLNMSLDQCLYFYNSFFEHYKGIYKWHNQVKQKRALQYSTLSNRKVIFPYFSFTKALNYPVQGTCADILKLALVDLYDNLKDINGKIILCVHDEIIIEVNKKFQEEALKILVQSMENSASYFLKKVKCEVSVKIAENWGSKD

SMILES: Nc1c(S(=O)(=O)O)cc(Nc2ccccc2)c2c1C(=O)c1ccccc1C2=O [KU0045407]
- DNA Pol ('DNA Pol' of the 186 hits list (primary screen result)): 49
- % inhibition Apo pol 10' (DRC-1, concentration 2.5): 39.3278%
- % inhibition Apo pol 10' (DRC-1, concentration 5): 47.4944%
- % inhibition Apo pol 10' (DRC-1, concentration 10): 57.4142%
- % inhibition Apo pol 10' (DRC-1, concentration 20): 88.2417%
- % inhibition Apo pol 10' (DRC-1, concentration 40): 98.9011%
- % inhibition Apo pol 10' (DRC-1, concentration 80): 101.451%
- % inhibition Apol 90' (DRC-1, 90', concentration 2.5): 14.8722%
- % inhibition Apol 90' (DRC-1, 90', concentration 5): 18.228%
- % inhibition Apol 90' (DRC-1, 90', concentration 10): 36.638%
- % inhibition Apol 90' (DRC-1, 90', concentration 20): 73.4923%
- % inhibition Apol 90' (DRC-1, 90', concentration 40): 92.3698%
- % inhibition Apol 90' (DRC-1, 90', concentration 80): 99.716%
- % inhibition apPOL 180' (DRC-1, 180', concentration 2.5): 5.356%
- % inhibition apPOL 180' (DRC-1, 180', concentration 5): 9.027%
- % inhibition apPOL 180' (DRC-1, 180', concentration 10): 27.7566%
- % inhibition apPOL 180' (DRC-1, 180', concentration 20): 64.7558%
- % inhibition apPOL 180' (DRC-1, 180', concentration 40): 88.0246%
- % inhibition apPOL 180' (DRC-1, 180', concentration 80): 99.8487%
- % inhibition Apo pol 5' (DRC-2, 5', concentration 10 (unit not given)): 39%
- % inhibition Apo pol 5' (DRC-2, 5', concentration 40 (unit not given)): 75%
- % inhibition Apol 40' (DRC-2, 40', concentration 5 (unit not given)): 15%
- % inhibition Apol 40' (DRC-2, 40', concentration 20 (unit not given)): 81%
- % inhibition Apol 40' (DRC-2, 40', concentration 40 (unit not given)): 86%
- % inhibition ApPOL 90' (DRC-2, 90', concentration 10 (unit not given)): 39%
- % inhibition ApPOL 90' (DRC-2, 90', concentration 20 (unit not given)): 81%
- % inhibition apPOL 180' (DRC-2, 180', concentration 20 (unit not given)): 75%
- % inhibition apPOL 180' (DRC-2, 180', concentration 80 (unit not given)): 86%
- % inhibition Apo pol 5' (DRC-2, 5', concentration 2.5): 2.61%
- % inhibition Apo pol 5' (DRC-2, 5', concentration 5): 15%
- % inhibition Apo pol 5' (DRC-2, 5', concentration 5 (unit not given)): 15%
- % inhibition Apo pol 5' (DRC-2, 5', concentration 10): 39%
- % inhibition Apo pol 5' (DRC-2, 5', concentration 20): 73%
- % inhibition Apo pol 5' (DRC-2, 5', concentration 40): 75%
- % inhibition Apo pol 5' (DRC-2, 5', concentration 80): 62%
- % inhibition Apol 40' (DRC-2, 40', concentration 2.5): 1.87%
- % inhibition Apol 40' (DRC-2, 40', concentration 5): 15%
- % inhibition Apol 40' (DRC-2, 40', concentration 10): 40%
- % inhibition Apol 40' (DRC-2, 40', concentration 20): 81%
- % inhibition Apol 40' (DRC-2, 40', concentration 40): 86%
- % inhibition Apol 40' (DRC-2, 40', concentration 80): 80%
- % inhibition ApPOL 90' (DRC-2, 90', concentration 2.5): 2.58%
- % inhibition ApPOL 90' (DRC-2, 90', concentration 5): 14%
- % inhibition ApPOL 90' (DRC-2, 90', concentration 10): 39%
- % inhibition ApPOL 90' (DRC-2, 90', concentration 20): 81%
- % inhibition ApPOL 90' (DRC-2, 90', concentration 40): 87%
- % inhibition ApPOL 90' (DRC-2, 90', concentration 80): 83%
- % inhibition apPOL 180' (DRC-2, 180', concentration 2.5): 3.63%
- % inhibition apPOL 180' (DRC-2, 180', concentration 5): 5%
- % inhibition apPOL 180' (DRC-2, 180', concentration 10): 30%
- % inhibition apPOL 180' (DRC-2, 180', concentration 20): 75%
- % inhibition apPOL 180' (DRC-2, 180', concentration 40): 85%
- % inhibition apPOL 180' (DRC-2, 180', concentration 80): 86%
- DNA Pol (primary screen value of the library well): 49
